Measurements as given in patent publication US10294202B2, “Pyrrolidinones as herbicides” (FMC Corporation, priority 2013, dated 2019).

Experiments:
velvetleaf = experiment: Test E preemergence herbicide test; format: in vivo, Abutilon theophrasti; parameters: key: 0 = no effect, 100 = complete control
From the text: Seeds of plant species selected from corn (Zea mays), soybean (Glycine max), velvetleaf (Abutilon theophrasti), lambsquarters (Chenopodium album), wild poinsettia (Euphorbia heterophylla), pigweed, palmer (palmer pigweed, Amaranthus palmeri), waterhemp (common waterhemp, Amaranthus rudis), surinam grass (Brachiaria decumbens), crabgrass, large (large crabgrass, Digitaria sanguinalis), crabgrass, Brazil (Brazilian crabgrass, Digitaria horizontalis), panicum, fall (fall panicum, Panicum dichotomiflorum), foxtail, giant (giant foxtail, Setaria faberii), foxtail, green (green foxtail, Setaria viridis), goosegrass (Eleusine indica), johnsongrass (Sorghum halepense), ragweed (common ragweed, Ambrosia elatior), barnyardgrass (Echinochloa crus-galli), sandbur (southern sandbur, Cenchrus echinatus), arrowleaf […] rhombifolia), ryegrass, Italian (Italian ryegrass, Lolium multiflorum), dayflower, VA (Virginia dayflower, Commelina virginica), field bindweed (Convolvulus arvensis), morningglory (Ipomoea coccinea), nightshade (eastern black nightshade, Solanum ptycanthum), kochia (Kochia scoparia), nutsedge, yellow (yellow nutsedge, Cyperus esculentus), cocklebur (common cocklebur, Xanthium strumarium), smartweed (ladysthumb smartweed, Polygonum Persicaria) and beggarticks (hairy beggarticks, Bidens pilosa), were planted into a silt loam soil and treated preemergence with test chemicals formulated in a non-phytotoxic solvent mixture which included a surfactant. Treated plants and controls were maintained in a greenhouse for 21 days, after which time all species were compared to controls and visually evaluated. Plant response ratings, summarized in Table E, are based on a scale of 0 to 100 where 0 is no effect and 100 is complete control. A dash (-) response means no test result.

chickweed = experiment: Test D pre-/postemergence herbicide test; format: in vivo, Stellaria media; conditions: for Plant response rating, Chickweed: scale 0 to 100 (0 no effect, 100 complete control); for Plant response rating: Chickweed, scale 0 to 100
From the text: (§1) Seeds of plant species selected from bluegrass (annual bluegrass, Poa annua), blackgrass (Alopecurus myosuroides), canarygrass (littleseed canarygrass, Phalaris minor), chickweed (common chickweed, Stellaria media), galium (catchweed bedstraw, Galium aparine), bromegrass, downy (downy bromegrass, Bromus tectorum), field poppy (Papaver rhoeas), field violet (Viola arvensis), foxtail, green (green foxtail, Setaria viridis), deadnettle (henbit deadnettle, Lamium amplexicaule), ryegrass, Italian (Italian ryegrass, Lolium multiflorum), kochia (Kochia scoparia), lambsquarters (Chenopodium album), oilseed rape (Brassica napus), pigweed (Amaranthus retroflexus), chamomile (scentless chamomile, Matricaria inodora), Russian thistle (Salsola kali), speedwell (bird's-eye speedwell, Veronica persica), barley, spring (spring barley, Hordeum vulgare), wheat, spring (spring wheat, Triticum aestivum), buckwheat, wild (wild buckwheat, Polygonum convolvulus), mustard, wild (wild mustard, Sinapis arvensis), oat, wild (wild oat, Avena fatua), radish, wild (wild radish, Raphanus raphanistrum), […]), barley, winter (winter barley, Hordeum vulgare), and wheat, winter (winter wheat, Triticum aestivum) were planted into a silt loam soil and treated preemergence with test chemicals formulated in a non-phytotoxic solvent mixture which included a surfactant. At the same time, these species were planted in pots containing Redi-Earth® planting medium (Scotts Company, 14111 Scottslawn Road, Marysville, Ohio 43041) comprising spaghnum peat moss, vermiculite, wetting agent and starter nutrients and treated with postemergence applications of the test chemicals formulated in the same manner. Plants ranged in height from 2 to 18 cm (1- to 4-leaf stage). Treated plants and controls were maintained in a controlled growth environment for 7 to 21 days after which time all species were compared to controls and visually evaluated. Plant response ratings, summarized in Table D, are based on a scale of 0 to 100 where 0 is no effect and 100 is complete control. A dash (-) response means no test result.

canarygrass = experiment: Test D pre-/postemergence herbicide test; format: in vivo, Phalaris minor; conditions: for Plant response rating, Canarygrass: scale 0 to 100 (0 no effect, 100 complete control); for Plant response rating: Canarygrass, scale 0 to 100
From the text: as §1

speedwell = experiment: Test D pre-/postemergence herbicide test; format: in vivo, Veronica persica; conditions: for Plant response rating, Speedwell: Preemergence, scale 0 to 100 (0 no effect, 100 complete control)
Outline: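 Plants were sown in silt loam for preemergence spraying or in a peat moss/vermiculite mix for postemergence spraying at 2 to 18 cm height. Formulations used a non-phytotoxic solvent mixture with a surfactant. After 7 to 21 days, responses were scored visually from 0 (no effect) to 100 (complete control).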

cocklebur = experiment: Test C pre-/postemergence herbicide test; format: in vivo, Xanthium strumarium; conditions: Postemergence
From the text: Seeds of plant species selected from blackgrass (Alopecurus myosuroides), ryegrass, Italian (Italian ryegrass, Lolium multiflorum), wheat (winter wheat, Triticum aestivum), galium (catchweed bedstraw, Galium aparine), corn (Zea mays), crabgrass, large (large crabgrass, Digitaria sanguinalis), foxtail, giant (giant foxtail, Setaria faberii), johnsongrass (Sorghum halepense), lambsquarters (Chenopodium album), morningglory (Ipomoea coccinea), nutsedge, yellow (yellow nutsedge, Cyperus esculentus), pigweed (Amaranthus retroflexus), ragweed (common ragweed, Ambrosia elatior), soybean (Glycine max), barnyardgrass (Echinochloa crus-galli), oilseed rape (Brassica napus), waterhemp (common waterhemp, Amaranthus rudis), kochia (Kochia scoparia), oat, wild (wild oat, Avena fatua), surinam grass (Brachiaria decumbens), foxtail, green (green foxtail, Setaria viridis), goosegrass (Eleusine indica), bromegrass, downy (downy bromegrass, Bromus tectorum), nightshade (eastern black nightshade, Solanum ptycanthum), cocklebur (common cocklebur, Xanthium strumarium), cupgrass, woolly (woolly cupgrass, Eriochloa villosa), bermudagrass (Cynodon dactylon), sunflower, (common oilseed sunflower, Helianthus annuus), Russian thistle (Salsola kali) and velvetleaf (Abutilon theophrasti) were planted into a blend of loam soil and sand and treated preemergence with test chemicals formulated in a non-phytotoxic solvent mixture which included a surfactant. At the same time, plants selected from these crop and weed species and also barley (winter barley, Hordeum vulgare), […]), chickweed (common chickweed, Stellaria media), deadnettle (henbit deadnettle, Lamium amplexicaule), and canarygrass (littleseed canarygrass, Phalaris minor) were planted in pots containing Redi-Earth® planting medium (Scotts Company, 14111 Scottslawn Road, Marysville, Ohio 43041) comprising spaghnum peat moss, vermiculite, wetting agent and starter nutrients and treated with postemergence applications of test chemicals formulated in the same manner. Plants ranged in height from 2 to 18 cm (1- to 4-leaf stage) for postemergence treatments. Treated plants and controls were maintained in a greenhouse for 13 to 15 days, after which time all species were compared to controls and visually evaluated. Plant response ratings, summarized in Table C, are based on a scale of 0 to 100 where 0 is no effect and 100 is complete control. A dash (-) response means no test result.

Structure (SMILES) | Plant response rating, Velvetleaf (velvetleaf; 31 g ai/ha) | Plant response rating, Velvetleaf (velvetleaf; 62 g ai/ha) | Plant response rating, Velvetleaf (velvetleaf; 125 g ai/ha) | Plant response rating, Velvetleaf (velvetleaf; 250 g ai/ha) | Plant response rating, Chickweed (chickweed; Preemergence, 62 g ai/ha) | Plant response rating, Chickweed (chickweed; Preemergence, 125 g ai/ha) | Plant response rating, Chickweed (chickweed; Preemergence, 31 g ai/ha) | Plant response rating (chickweed; Preemergence, 250 g ai/ha) | Plant response rating, Canarygrass (canarygrass; Preemergence, 62 g ai/ha) | Plant response rating, Canarygrass (canarygrass; Preemergence, 125 g ai/ha) | Plant response rating, Canarygrass (canarygrass; Preemergence, 31 g ai/ha) | Plant response rating (canarygrass; Preemergence, 250 g ai/ha) | Plant response rating, Speedwell (speedwell; 62 g ai/ha) | Plant response rating, Speedwell (speedwell; 125 g ai/ha) | Plant response rating, Speedwell (speedwell; 31 g ai/ha) | Plant response rating, Speedwell (speedwell; 250 g ai/ha) | also measured
O=C1NCC(c2ccc(OC(F)F)cc2)C1C(=O)Nc1cccc(F)c1F (racemic) [Compound 350] | 0 | 0 | 0 | 0 |  |  |  |  |  |  |  |  |  |  |  |  | 
O=C1NC[C@H](c2cccc(C(F)(F)F)c2)[C@H]1C(=O)Nc1cccc(F)c1F [Compound 206] | 0 | 35 | 30 | 50 | 100 | 70 | 30 | 95 | 75 | 85 | 55 | 85 | 25 | 65 | 0 | 90 | 
O=C1NC[C@H](c2cccc(C(F)(F)F)c2)[C@H]1C(=O)Nc1ccccc1F [Compound 204, (3R,4S)—N-(2-fluorophenyl)-2-oxo-4-[3-(trifluoromethyl)phenyl]-3-pyrrolidinecarboxamide] | 0 | 0 | 0 | 0 | 100 | 100 | 100 | 100 | 10 | 10 | 0 | 75 | 10 | 10 | 0 | 70 | 
O=C1NCC(c2cc(F)c(F)cc2F)C1C(=O)Nc1cccc(F)c1F (stereo not shown) [Compound 50] |  |  |  |  | 0 |  | 0 |  | 0 |  | 0 |  | 0 | 0 | 0 |  | Plant response rating (chickweed; Postemergence, 16 g ai/ha): 10; Plant response rating (chickweed; Postemergence, 31 g ai/ha): 15; Plant response rating (chickweed; Postemergence, 62 g ai/ha): 20; Plant response rating (chickweed; Postemergence, 125 g ai/ha): 15; Plant response rating, Chickweed (chickweed; Preemergence, 16 g ai/ha): 0; Plant response rating (chickweed; Preemergence, 125 g ai/ha): 0; Plant response rating, Cocklebur (cocklebur; 31 g ai/ha, scale 0 (no effect) to 100 (complete control)): 5; Plant response rating, Cocklebur (cocklebur; 62 g ai/ha, scale 0 to 100 (0 no effect, 100 complete control)): 5; Plant response rating, Cocklebur (cocklebur; 125 g ai/ha, scale 0 to 100 (0 no effect, 100 complete control)): 5; Plant response rating, Cocklebur (cocklebur; 250 g ai/ha, scale 0 to 100 (0 no effect, 100 complete control)): 5; Plant response rating (canarygrass; Postemergence, 16 g ai/ha): 0; Plant response rating (canarygrass; Postemergence, 31 g ai/ha): 0; Plant response rating (canarygrass; Postemergence, 62 g ai/ha): 0; Plant response rating (canarygrass; Postemergence, 125 g ai/ha): 0; Plant response rating, Canarygrass (canarygrass; Preemergence, 16 g ai/ha): 0; Plant response rating (canarygrass; Preemergence, 125 g ai/ha): 0; Plant response rating (speedwell; Postemergence, 16 g ai/ha, Speedwell, scale 0 to 100): 0; Plant response rating, Speedwell (speedwell; 16 g ai/ha): 0
